The values that follow come from EPA's ToxValDB 9.5 (doi:10.2903/j.efsa.2006.83r).

In brackets after ≈: the same amount, converted by molar mass. Several values for one entry are separate records, joined by “and”; a condition that tells them apart may be missing. Equal values may be shown once.

In one data set the test system is Apis mellifera. The note with it: acute; duration: 48 hours; dermal; mortality.
Another data set relates to Daphnia magna. The note with it: chronic/long-term; duration: 21 days.
The next data set relates to Lepomis macrochirus. The note with it: acute; duration: 96 hours; mortality.
Another data set has as its system Pimephales promelas. The note with it: chronic/long-term.
The next data set has as its system Rattus norvegicus. To be noted: acute; oral; gavage; M/F; clinical chemistry.
The next data set concerns Tagia sp. To be noted: acute; duration: 14 days; mortality.
The test system of the next data set is Aphidius rhopalosiphi. In words: LR50; higher = less toxic. The note with it: acute; duration: 48 hours; mortality.

Consider `CNC(=O)ON=C(C)SC` [Methomyl], for which the LD50 (acute, oral, unspecified, mortality) was 30 mg/kg; the LD50 with Apis mellifera turned out to be 0.16 µg/piece; the LD50 in the data set with Colinus virginianus (acute, oral, mortality) is 24.2 mg/kg and 30.4 mg/kg. For the same compound, the NOAEL (in general, the highest tested level that showed no adverse finding) (reproductive, development) was 75 mg/kg and the no observed adverse effect level (NOAEL) with Rattus norvegicus stood at 0.25 mg/kg-day. Further, the NOEC with Anas platyrhynchos (reproductive) came out at 150 mg/kg; in the data set with Colinus virginianus (reproduction developmental), 150 mg/kg-day; in the data set on Daphnia magna, 0.0016 mg/L; in the data set on Pimephales promelas it was 0.073 mg/L. The LC50 in the data set with Anas platyrhynchos (short-term, oral, feed, mortality) came out at 3950 mg/kg; in the data set with Lepomis macrochirus, 0.63 µg/mL (≈ 3.88 µM); in the data set on Tagia sp. it was 19 mg/kg. The compound further displayed an LR50 in the data set on Aphidius rhopalosiphi of 0.25 g/ha.
